Data taken from publication PMC8018184, “Evaluation of the Pharmacophoric Role of the O–O Bond in Synthetic Antileishmanial Compounds: Comparison between 1,2-Dioxanes and Tetrahydropyrans” (Journal of Medicinal Chemistry, 2020).
Where “and” joins values, the source holds several entries; their conditions need not be identical. Identical values can stand only once.

Key:
[1] = tested on: promastigotes of L. donovani; set-up: method as in PMID 30878827; conditions: in vitro; cited from earlier work
Leishmania promastigotes = tested on: Leishmania promastigotes; set-up: method as in PMID 27867026, PMID 17339374; conditions: Figure 3; cited from earlier work
[2] = tested on: intramacrophage amastigotes of L. donovani; assay: Amastigote growth inhibition assay in infected THP-1 cells (Giemsa, infectivity index); format: cell-based, Leishmania donovani; conditions: for IC50: Leishmania donovani, intracellular amastigotes in THP-1, 72 h, read-out: IC50 against amastigotes of L. donovani
Method: To evaluate the efficacy of the compounds on the intracellular form of L. donovani, human acute monocytic leukemia cell line (THP-1) was infected with L. donovani promastigotes. Cells were harvested and seeded in a 96-well plate (10^5 cells mL^–1) in the complete RPMI 1640 medium, and PMA (0.1 μM, Cayman Chemical Company, Ann Arbor, Michigan, USA) was added for obtaining maturation and cell adherence. Cells were incubated at 37 °C in a 5% CO2 incubator. After 48 h, the medium was replaced with the fresh medium containing stationary-phase promastigotes that were then phagocyted by monocytic cells and transformed into intracellular amastigotes. After 24 h of incubation, newly synthesized compounds were added and the plates were incubated at 37 °C in a 5% CO2 incubator for 72 h. After incubation, wells were washed, fixed, and stained with Giemsa. Staining was detected using a Nikon Eclipse E200 light microscope (Nikon, Tokyo, Japan). The infectivity index (% of infected macrophages × average number of amastigotes per macrophage) was determined by counting at least 100 cells in duplicate cultures.

[3] = tested on: L. donovani promastigotes (MHOM/NP/02/BPK282/0cl4); assay: Promastigote growth inhibition assay (alamarBlue); format: cell-based, Leishmania donovani; conditions: for IC50: Leishmania donovani, 72 h, alamarBlue, HOMEM 20% FBS, compounds as racemates, read-out: IC50 (concentration causing 50% growth inhibition) against promastigotes of L. donovani
Method: The bioactivity of the new tetrahydropyrans 3 was initially evaluated against the extracellular promastigote forms of L. donovani (MHOM/NP/02/BPK282/0cl4) as the reference strain, indicative of the leishmaniasis in the Old World. The results were expressed as IC50, i.e., the concentration of the product required to inhibit the parasite growth by 50%. When a compound could inhibit the promastigote growth, its cytotoxicity was also evaluated on Vero cells (Table 1) and on THP-1 cells (see the Supporting Information, Table S3) and the corresponding selectivity indexes (SIs) were calculated. The performance of each tetrahydropyran 3 was compared with that of the corresponding endoperoxide 2 (Table 1).
Promastigotes of a L. donovani reference strain (MHOM/NP/02/BPK282/0cl4) were maintained at 26 °C in a liquid custom-made medium, HOMEM Cat. no: 1140-082 (Gibco Thermo Fisher Scientific Inc., Waltham, USA), complete composition: S-MEM (Eagle) 1 × 1 liter pack, glucose (1–2 g), sodium bicarbonate (0.3 g), sodium pyruvate (0.11 g), p-aminobenzoic acid (1 mg), biotin (0.1 mg), HEPES (4.77–5.96 g), MEM amino acids (10 mL), MEM nonessential amino acids (10 mL), pH 7.5–7.6, supplemented with 20% fetal bovine serum (FBS, EuroClone SpA, Milan, Italy)[123] and 1% penicillin–streptomycin (EuroClone SpA).
To evaluate the efficacy of the compounds on the extracellular forms of L. donovani, promastigotes in their late log/stationary phase were seeded with the complete HOMEM medium at 10^6 cells mL^–1 in 96-well plates and incubated with tested compounds at a range concentration of 600–1.6 μM in a 26 °C incubator for 72 h. The antileishmanial drug amphotericin B was used as the positive control, and untreated promastigotes were the negative control. Each experiment was performed in duplicate. Stock solution of the compounds was 8 mM in DMSO. […] The alamarBlue assay includes a colorimetric growth indicator based on detection of metabolic activity. Specifically, the system incorporates an oxidation–reduction (REDOX) indicator that changes color in response to chemical reduction of the growth medium resulting from cell growth. The method monitors the reducing environment of proliferating cells; the cell-permeable resazurin is added (nonfluorescent form, blue color) and, upon entering cells, is reduced to resorufin (fluorescent form, red color) as a result of cellular metabolic activity. Evaluation was performed by adding 20 μL of alamarBlue and incubating at 26 °C for 24 h. The reducing environment was evaluated after 24 h by absorbance measurement at the Multiskan ascent plate reader (Thermo Fisher Scientific Inc.) at 550 and 630 nm.

[4] = tested on: intracellular amastigotes of L. infantum; set-up: method as in PMID 26014947; conditions: in vitro; cited from earlier work
[5] = tested on: promastigotes of Leishmania donovani strains; set-up: method as in earlier work; conditions: Figure 1, cited from earlier work; for IC50: read-out: IC50 on promastigotes of L. donovani strains
[6] = Cytotoxicity test on Vero cells (alamarBlue); format: cell-based, African green monkey; conditions: African green monkey
Method: Vero cells (kidney of African green monkey epithelial cell line) were cultured at 37 °C in the MEM liquid medium supplemented with 10% FBS (EuroClone SpA), 1% levoglutamine (EuroClone SpA), and 1% penicillin–streptomycin (EuroClone SpA). THP-1 cells (human leukemia monocytic cell line) were cultured at 37 °C in the RPMI 1640 (EuroClone SpA) liquid medium supplemented with 10% FBS (EuroClone SpA), 1% levoglutamine (EuroClone SpA), 1% penicillin–streptomycin, and mercaptoethanol (Gibco) 50 μM.
The cytotoxicity of the compounds was determined using mammalian kidney epithelial cells (Vero cell line) and human acute monocytic leukemia cell line (THP-1). Cells were seeded (10^5 cells mL^–1) on 96-well plates with the complete MEM medium and incubated with test compounds at 37 °C in a 5% CO2 incubator. After 72 h of incubation, 20 μL of the alamarBlue reagent was added to each well and incubated at 37 °C for 24 h. Reduction of resazurin to resorufin was evaluated after 24 h by absorbance measurement at the Multiskan ascent plate reader (Thermo Fisher Scientific Inc.,) at 550 and 630 nm. […] Each experiment was performed in duplicate.

[7] = tested on: amastigotes of L. donovani; set-up: method as in PMID 30908481; conditions: cited from earlier work
[8] = tested on: promastigotes of L. infantum; set-up: method as in PMID 26014947; conditions: in vitro; cited from earlier work

For `CCCCC1(CCCC)CC(CNCCCn2ccnc2)C(C)(OC)OO1` (stereo not drawn) [3,4-trans 2a], the IC50 [1] is given as 4 µM.
For `CCCCC1(CCCC)CC(CNCCCn2ccnc2)C(C)(OC)OO1` (stereo not drawn) [3,4-cis 2a], the IC50 [1] is listed as 5.5 µM.
For `COc1ccc(N[C@@]2(C(F)(F)F)O[C@@H]3C[C@@]4(C)C[C@H]5[C@H](C)CC[C@@H]([C@H]2C)[C@@]35OO4)cc1` [BB201], the IC50 (Leishmania promastigotes) is listed as 0.38 to 1.5 µM.
For `C[C@@H]1CC[C@H]2[C@@H](C)C(=O)O[C@@H]3O[C@@]4(C)CC[C@@H]1[C@]32OO4` [Artemisinin, reference compound], the IC50 (Leishmania promastigotes) is listed as 30.8 µM, the IC50 [2] is listed as over 40 µM and the IC50 [3] is listed as over 40 µM.
In the case of `O=C1CCC2(CC1)OOC1(O2)C2CC3CC(C2)CC1C3` (centres unmarked) [LC50], the IC50 [4] is listed as 79.8 to 108 µM.
For `O.O.O.O.O.O.O.O.O.O=C([O-])[C@@H]1[O][Sb](=[O])([O][Sb]2(=[O])[O][C@H]([C@H](O)CO)[C@H](O)[C@H](C(=O)[O-])[O]2)[O][C@H]([C@H](O)CO)[C@@H]1O.[Na+].[Na+].[Na+]` (some centres unmarked) [Sodium stibogluconate], the “IC50 on promastigotes of L. donovani strains” value [5] is listed as 8.8 to 22.0 µg/mL.
For `C=CCO[C@@]1(C(F)(F)F)O[C@@H]2C[C@@]3(C)C[C@H]4[C@H](C)CC[C@@H]([C@H]1C)[C@@]24OO3` [BB241], the IC50 (Leishmania promastigotes) is given as 1.6 to 6.3 µM.
For `C[C@@H]1[C@H](O)[C@@H](C)/C=C/C=C/C=C/C=C/C=C/C=C/C=C/[C@H](O[C@@H]2O[C@H](C)[C@@H](O)[C@H](N)[C@@H]2O)C[C@@H]2O[C@](O)(C[C@@H](O)C[C@@H](O)[C@H](O)CC[C@@H](O)C[C@@H](O)CC(=O)O[C@H]1C)C[C@H](O)[C@H]2C(=O)O` [Amphotericin B, reference compound], the CC50 at 72 h [6] is given as 200 µM, the IC50 [5] is given as 0.03 to 2.8 µM and the IC50 [2] is given as 0.07 µM. For the same molecule, the “Selectivity index (SI) = CC50/IC50” value ([2]; Vero CC50 / IC50 on amastigotes) was 2857.1, the IC50 [3] was 0.3 µM and the “Selectivity index (SI) = CC50/IC50” value ([3]; Vero CC50 / IC50 on promastigotes) was 666.7.
For “6-(1,2,6,7-tetraoxaspiro[7.11]nonadec-4-yl) hexan-1-ol [N-251]”, the IC50 [7] is given as 6.7 µM.
In the case of `CCCCCCCCCCCCCCCCOP(=O)([O-])OCC[N+](C)(C)C` [Miltefosine], the IC50 [5] is given as 1.9 to 68.1 µM.
For `NC[C@@H]1O[C@H](O[C@H]2[C@@H](O)[C@H](O[C@@H]3[C@@H](O)[C@H](N)C[C@H](N)[C@H]3O[C@H]3O[C@H](CO)[C@@H](O)[C@H](O)[C@H]3N)O[C@@H]2CO)[C@H](N)[C@@H](O)[C@@H]1O` [Paromomycin], the IC50 [5] is given as 19.7 to 28.1 µM.
For `NCC1CC[C@]2(CC1)OO[C@]1(O2)C2CC3CC(C2)CC1C3` (some centres unmarked) [LC95], the IC50 [8] is listed as 3.5 µM and 3.5 to 9.4 µM and the IC50 [4] is listed as 79.8 to 108 µM.
